Results reported in patent US20160270397A1, “Herbicidal Composition Comprising ACC Inhibitors” (BASF SE, priority 2013, published 2016).
Read-outs that look alike come from different tables or passages of the source.

What was measured:
LEFFA = test: Greenhouse post-emergence treatment, herbicidal activity against LEFFA; type: in vivo, Leptochloa fusca subsp. Fascicularis
Method: (§1) The culture containers used were plastic pots containing loamy sand with approximately 2-3.0% of organic matter. The seeds of the test plants were sown separately for each species.
(§2) For the post-emergence treatment, the test plants were grown to a plant height of from 3 to 15 cm, depending on the plant habit, and only then treated with the active compounds which had been suspended or emulsified in water. To this end, the test plants were either sown directly, and grown in the same containers, or they were first grown separately as seedlings and transplanted into the test containers a few days prior to treatment.
(§3) Depending on the species, the plants were kept at 10-25° C. and 20-35° C., respectively. The test period extended over 1 to 4 weeks. During this time, the plants were tended and their response to the individual treatments was evaluated.
(§4) Evaluation was carried out using a scale from 0 to 100. 100 means no emergence of the plants, or complete destruction of at least the above-ground parts, and 0 means no damage or normal course of growth.

AMARE = test: Greenhouse post-emergence treatment, herbicidal activity against AMARE; type: in vivo, Amaranthus retroflexus L.
Method: as §1, §2, §3, §4

COMBE = test: Greenhouse post-emergence treatment, herbicidal activity against COMBE; type: in vivo, Commelina benghalensis
Method: as §1, §2, §3, §4

SETVI = test: Greenhouse post-emergence treatment, herbicidal activity against SETVI; type: in vivo, Setaria viridis L.
Method: as §1, §2, §3, §4

BRADE = test: Greenhouse post-emergence treatment, herbicidal activity against BRADE; type: in vivo, Brachiaria deflexa
Method: as §1, §2, §3, §4

IPOHE = test: Greenhouse post-emergence treatment, herbicidal activity against IPOHE; type: in vivo, Ipomoea hederacea
Method: as §1, §2, §3, §4

PHACA = test: Greenhouse post-emergence treatment, herbicidal activity against PHACA; type: in vivo, Phalaris canariensis L.
Method: as §1, §2, §3, §4

SEBEX = test: Greenhouse post-emergence treatment, herbicidal activity against SEBEX; type: in vivo, Sesbania exaltata
Method: as §1, §2, §3, §4

Question: Which pest or weed control at 2.5 g/ha (LEFFA; Diplachne fusca, Example 11, b4.3 2.5 g/ha a.i., read-out: herbicidal activity against LEFFA, found) does the source give for `CC(C)N(C)S(=O)(=O)NC(=O)c1cc(-n2c(=O)cc(C(F)(F)F)n(C)c2=O)c(F)cc1Cl` [b4.3, saflufenacil] here?
Answer: 65%

Question: And the “herbicidal activity against LEFFA, found” value (LEFFA; Example 12, b4.3 2.5 g/ha a.i.)?
Answer: 65%

Question: `COc1c(Cl)ccc(Cl)c1C(=O)O` [b7.2, dicamba] was tested. Which pest or weed control at 250 g/ha (LEFFA; Diplachne fusca, b7.2 250 g/ha a.i., read-out: herbicidal activity against LEFFA, found) did it give?
Answer: 25%

Question: `O=C(O)c1c(Cl)ccc2cc(Cl)cnc12` [b7.5, quinclorac] was tested. Which “herbicidal activity against AMARE, found” value (AMARE; b7.5 180 g/ha a.i.) did it give?
Answer: 50%

Question: What about the “herbicidal activity against COMBE, found” value (COMBE; b7.5 7.5 g/ha a.i.) of the same molecule?
Answer: 0%

Question: And the pest or weed control at 75 g/ha (LEFFA; Diplachne fusca, Example 12, b7.5 75 g/ha a.i., read-out: herbicidal activity against LEFFA, found)?
Answer: 65%

Question: And the “herbicidal activity against LEFFA, found” value (LEFFA; Example 13, b7.5 75 g/ha a.i.)?
Answer: 65%

Question: And the “herbicidal activity against SETVI, found” value (SETVI; b7.5 90 g/ha a.i.)?
Answer: 65%

Question: For `CC(C)N1C(=O)c2ccccc2NS1(=O)=O` [b3.1, bentazone], which “herbicidal activity against COMBE, found” value (COMBE; b3.1 250 g/ha a.i.) is on record?
Answer: 95%

Question: And the pest or weed control at 250 g/ha (LEFFA; Diplachne fusca, b3.1 250 g/ha a.i., read-out: herbicidal activity against LEFFA, found)?
Answer: 10%

Question: How did the “herbicidal activity against AMARE, found” value (AMARE; Example 2, a1.19 10 g/ha a.i.) turn out when `CCCC(=NOCC)C1=C(O)CC(C2CCCSC2)CC1=O` (stereo not shown) [a1.19, cycloxydim] was run?
Answer: 0%

Question: What about the “herbicidal activity against AMARE, found” value (AMARE; Example 6, a1.19 10 g/ha a.i.) of the same molecule?
Answer: 0%

Question: And the “herbicidal activity against BRADE, found” value (BRADE; a1.19 10 g/ha a.i.)?
Answer: 65%

Question: What about the “herbicidal activity against COMBE, found” value (COMBE; a1.19 10 g/ha a.i.) of the same molecule?
Answer: 0%

Question: And the “herbicidal activity against IPOHE, found” value (IPOHE; Example 1, a1.19 10 g/ha a.i.)?
Answer: 10%

Question: What about the “herbicidal activity against IPOHE, found” value (IPOHE; Example 6, a1.19 10 g/ha a.i.) of the same molecule?
Answer: 10%

Question: And the “herbicidal activity against IPOHE, found” value (IPOHE; a1.19 5 g/ha a.i.)?
Answer: 0%

Question: What about the pest or weed control at 5 g/ha (LEFFA; Diplachne fusca, a1.19 5 g/ha a.i., read-out: herbicidal activity against LEFFA, found) of the same molecule?
Answer: 50%

Question: Which pest or weed control at 50 g/ha (LEFFA; Diplachne fusca, b7.6 50 g/ha a.i., read-out: herbicidal activity against LEFFA, found) does the source give for `O=C(O)COc1nc(Cl)c(Cl)cc1Cl` [b7.6, triclopyr] here?
Answer: 20%

Question: And the “herbicidal activity against PHACA, found” value (PHACA; b7.6 50 g/ha a.i.)?
Answer: 0%

Question: And the “herbicidal activity against SEBEX, found” value (SEBEX; b7.6 50 g/ha a.i.)?
Answer: 50%

Question: How did the “herbicidal activity against COMBE, found” value (COMBE; b2.1 5 g/ha a.i.) turn out when `COc1cc(OC)nc(NC(=O)NS(=O)(=O)c2c(-c3nnn(C)n3)cnn2C)n1` [b2.1, azimsulfuron] was run?
Answer: 0%

Question: What about the “herbicidal activity against IPOHE, found” value (IPOHE; b2.1 10 g/ha a.i.) of the same molecule?
Answer: 90%

Question: Which results are given for `COc1cnc(OC)n2nc(NS(=O)(=O)c3c(OCC(F)F)cccc3C(F)(F)F)nc12` [b2.12, penoxsulam]?
Answer: herbicidal activity against IPOHE, found (IPOHE; Example 3, b2.12 8 g/ha a.i.): 80%; herbicidal activity against IPOHE, found (IPOHE; Example 4, b2.12 8 g/ha a.i.): 80%; pest or weed control at 8 g/ha (LEFFA; Diplachne fusca, b2.12 8 g/ha a.i., read-out: herbicidal activity against LEFFA, found): 0%

Question: How did the “herbicidal activity against AMARE, found” value (AMARE; a1.14 7.5 g/ha a.i.) turn out when `C[C@@H](Oc1ccc(Oc2cnc3cc(Cl)ccc3n2)cc1)C(=O)O` [a1.14, quizalofop-P] was run?
Answer: 20%

Question: And the “herbicidal activity against COMBE, found” value (COMBE; a1.14 10 g/ha a.i.)?
Answer: 0%

Question: What about the “herbicidal activity against COMBE, found” value (COMBE; a1.14 15 g/ha a.i.) of the same molecule?
Answer: 0%

Question: And the “herbicidal activity against IPOHE, found” value (IPOHE; Example 3, a1.14 12 g/ha a.i.)?
Answer: 0%

Question: What about the “herbicidal activity against IPOHE, found” value (IPOHE; Example 5, a1.14 12 g/ha a.i.) of the same molecule?
Answer: 5%

Question: And the “herbicidal activity against LEFFA, found” value (LEFFA; Example 10, a1.14 10 g/ha a.i.)?
Answer: 40%

Question: And the “herbicidal activity against LEFFA, found” value (LEFFA; Example 11, a1.14 10 g/ha a.i.)?
Answer: 40%

Question: And the “herbicidal activity against LEFFA, found” value (LEFFA; Example 12, a1.14 10 g/ha a.i.)?
Answer: 40%

Question: And the “herbicidal activity against LEFFA, found” value (LEFFA; Example 13, a1.14 10 g/ha a.i.)?
Answer: 40%

Question: What about the “herbicidal activity against LEFFA, found” value (LEFFA; a1.14 15 g/ha a.i.) of the same molecule?
Answer: 65%

Question: And the “herbicidal activity against PHACA, found” value (PHACA; a1.14 15 g/ha a.i.)?
Answer: 65%

Question: And the “herbicidal activity against SEBEX, found” value (SEBEX; a1.14 15 g/ha a.i.)?
Answer: 0%

Question: And the “herbicidal activity against SETVI, found” value (SETVI; a1.14 7.5 g/ha a.i.)?
Answer: 75%

Question: What about the “herbicidal activity against SETVI, found” value (SETVI; a1.14 15 g/ha a.i.) of the same molecule?
Answer: 85%

Question: For `COc1cc(OC)nc(Oc2cccc(Oc3nc(OC)cc(OC)n3)c2C(=O)O)n1` [b2.13, bispyribac], which “herbicidal activity against AMARE, found” value (AMARE; b2.13 5 g/ha a.i.) is on record?
Answer: 90%

Question: What about the “herbicidal activity against IPOHE, found” value (IPOHE; Example 5, b2.13 5 g/ha a.i.) of the same molecule?
Answer: 75%

Question: What about the “herbicidal activity against IPOHE, found” value (IPOHE; Example 6, b2.13 5 g/ha a.i.) of the same molecule?
Answer: 75%

Question: And the pest or weed control at 5 g/ha (LEFFA; Diplachne fusca, Example 10, b2.13 5 g/ha a.i., read-out: herbicidal activity against LEFFA, found)?
Answer: 65%

Question: And the “herbicidal activity against LEFFA, found” value (LEFFA; Example 11, b2.13 5 g/ha a.i.)?
Answer: 65%

Question: How did the “herbicidal activity against AMARE, found” value (AMARE; b2.2 31 g/ha a.i.) turn out when `COc1cc(OC)nc(NC(=O)NS(=O)(=O)Cc2ccccc2C(=O)O)n1` [b2.2, bensulfuron] was run?
Answer: 80%

Question: And the “herbicidal activity against BRADE, found” value (BRADE; b2.2 31 g/ha a.i.)?
Answer: 0%

Question: With `CC1(C)CON(Cc2ccccc2Cl)C1=O` [b5.1, clomazone] as the molecule, how does the “herbicidal activity against COMBE, found” value (COMBE; b5.1 75 g/ha a.i.) read?
Answer: 70%

Question: What about the “herbicidal activity against SETVI, found” value (SETVI; b5.1 75 g/ha a.i.) of the same molecule?
Answer: 15%
